# Where two headings read alike, the source gives them in different places.
# Tested on: MCH receptors
# Assay: MCH receptor activity class (method not given)
# [1] = class by percent of control at 10^-7 M or IC50
# [2] = MCH receptor, class by percent of control at 10^-7 M or IC50
# [3] = class by percent of control at 10^−7 M or IC50
# [4] = activity class 1-3: percent of control at 10^-7 M or IC50
Compound,class [1],further results
CN(C)c1ccnc(N[C@H]2CC[C@@H](NC(=O)c3ccc(C(F)(F)F)cc3)CC2)n1 [compound 335],3 (Class 3 The value of percent of control at 10^−7 M was more than 60% or the value of IC50 was more than 200 nM.),
CN(C)c1nc(N[C@H]2CC[C@@H](NC(=S)NCC3CCCCC3)CC2)nc2c1CCCC2 [compound 2027],,class [2]: 3 (Class 3 The value of percent of control at 10^−7 M was more than 60% or the value of IC50 was more than 200 nM.)
CC(NC(=O)N[C@H]1CC[C@@H](Nc2nccc(N(C)C)n2)CC1)c1ccc(Br)cc1 (relative stereo) [compound 2248],3 (Class 3 The value of percent of control at 10^−7 M was more than 60% or the value of IC50 was more than 200 nM.),
CN(C)c1nc(N[C@H]2CC[C@@H](NC(=S)Nc3ccc(C(C)(C)C)cc3)CC2)nc2c1CCCC2 [compound 2065],,class [2]: 3 (Class 3 The value of percent of control at 10^−7 M was more than 60% or the value of IC50 was more than 200 nM.)
CN(C)c1nc(N[C@H]2CC[C@@H](CNC(=O)Nc3ccc(F)cc3F)CC2)nc2c1CCCC2 [compound 2453],,class (MCH receptor activity class 1-3 (percent of control at 10^-7 M or IC50)): 2 (Class 2: The value of percent of control at 10^−7 M was from 40% to 60% or the value of IC′50 was from 50 nM to 200 nM.)
Cc1cc(C(=O)N[C@H]2CC[C@@H](Nc3ncc(C)c(N(C)C)n3)CC2)ccc1Cl [compound 2935],,class [3]: 1 (Class 1: The value of percent of control at 10^−7 M was less than 40% or the value of IC50 was less than 50 nM.)
"CN(C)c1cc(N[C@H]2CC[C@@H](NC(=S)Nc3ccc(N(C)C)c4ccccc34)CC2)nc2ccccc12 [compound 2177, N-[4-(dimethylamino)-1-naphthyl]-N′-(cis-4-{[4-(dimethylamino)quinolin-2-yl]amino}cyclohexyl)thiourea]",2 (Class 2: The value of percent of control at 10^−7 M was from 40% to 60% or the value of IC′50 was from 50 nM to 200 nM.),
"Cc1onc(-c2c(Cl)cccc2Cl)c1C(=O)N[C@H]1CC[C@@H](Nc2nccc(N(C)C)n2)CC1 [compound 352, 3-(2,6-dichlorophenyl)-N-(cis-4-{[4-(dimethylamino)pyrimidin-2-yl]amino}cyclohexyl)-5-methylisoxazole-4-carboxamide]",1 (Class 1: The value of percent of control at 10^−7 M was less than 40% or the value of IC50 was less than 50 nM.),
CN(C)c1nc(N[C@H]2CC[C@@H](NC(=O)Nc3ccc(-c4ccccc4)cc3)CC2)nc2c1CCCC2 [compound 1898],,class [2]: 3 (Class 3 The value of percent of control at 10^−7 M was more than 60% or the value of IC50 was more than 200 nM.)
"Cc1cnc(N[C@H]2CC[C@@H](CNC(=O)c3ccccc3)CC2)nc1N(C)C [compound 2690, N-[(cis-4-{[4-(dimethylamino)-5-methylpyrimidin-2-yl]amino}cyclohexyl)methyl]benzamide]",,class [3]: 3 (Class 3 The value of percent of control at 10^−7 M was more than 60% or the value of IC50 was more than 200 nM.)
Cc1ccc(Cl)c(NC(=O)N[C@H]2CC[C@@H](Nc3nc4c(c(N(C)C)n3)CCCC4)CC2)c1 [compound 1856],3 (Class 3 The value of percent of control at 10^−7 M was more than 60% or the value of IC50 was more than 200 nM.),
CN(C)c1nc(N[C@H]2CC[C@@H](NC(=O)Oc3ccccc3)CC2)nc2c1CCCC2 [compound 1592],,class [4]: 3 (Class 3 The value of percent of control at 10^−7 M was more than 60% or the value of IC50 was more than 200 nM.)
COc1cc(CNC[C@H]2CC[C@@H](Nc3nccc(N(C)C)n3)CC2)cc(F)c1O [compound 1320],3 (Class 3 The value of percent of control at 10^−7 M was more than 60% or the value of IC50 was more than 200 nM.),
CN(C)c1nc(N[C@H]2CC[C@@H](NC(=S)Nc3cccc(SC(F)(F)F)c3)CC2)nc2c1CCCC2 [compound 1980],,class [2]: 3 (Class 3 The value of percent of control at 10^−7 M was more than 60% or the value of IC50 was more than 200 nM.)
COc1cc(CNC[C@H]2CC[C@@H](Nc3nc4c(c(N(C)C)n3)CCCC4)CC2)cc(Br)c1OC [compound 1431],3 (Class 3 The value of percent of control at 10^−7 M was more than 60% or the value of IC50 was more than 200 nM.),
CN(C)c1nc(N[C@H]2CC[C@@H](NC(=O)OCc3ccc([N+](=O)[O-])cc3)CC2)nc2c1CCCC2 [compound 1588],,class [4]: 3 (Class 3 The value of percent of control at 10^−7 M was more than 60% or the value of IC50 was more than 200 nM.)
"CN(C)c1ccnc(N[C@H]2CC[C@@H](NC(=O)c3cc(C(C)(C)C)nn3Cc3ccc(Cl)cc3Cl)CC2)n1 [compound 360, 3-tert-butyl-1-(2,4-dichlorobenzyl)-N-(cis-4-{[4-(dimethylamino)pyrimidin-2-yl]amino}cyclohexyl)-1H-pyrazole-5-carboxamide]",2 (Class 2: The value of percent of control at 10^−7 M was from 40% to 60% or the value of IC′50 was from 50 nM to 200 nM.),
CN(C)c1ccnc(N[C@H]2CC[C@@H](CNC(=O)/C=C/c3ccccc3)CC2)n1 [compound 371],2 (Class 2: The value of percent of control at 10^−7 M was from 40% to 60% or the value of IC′50 was from 50 nM to 200 nM.),

Compound,class [1],further results
CN(C)c1nc(N[C@H]2CC[C@@H](NC(=S)Nc3ccccc3)CC2)nc2c1CCCC2 [compound 1955],,class [2]: 3 (Class 3 The value of percent of control at 10^−7 M was more than 60% or the value of IC50 was more than 200 nM.)
COc1cc(CNC[C@H]2CC[C@@H](Nc3nccc(N(C)C)n3)CC2)cc2c1OCO2 [compound 1309],1 (Class 1: The value of percent of control at 10^−7 M was less than 40% or the value of IC50 was less than 50 nM.),
CSc1sc(C(=O)N[C@H]2CC[C@@H](Nc3cc(N(C)C)c4ccccc4n3)CC2)c(Cl)c1S(=O)(=O)C(C)C [compound 765],3 (Class 3 The value of percent of control at 10^−7 M was more than 60% or the value of IC50 was more than 200 nM.),
CN(C)c1ccnc(N[C@H]2CC[C@@H](CNC(=O)Cc3ccccc3OC(F)(F)F)CC2)n1 [compound 945],1 (Class 1: The value of percent of control at 10^−7 M was less than 40% or the value of IC50 was less than 50 nM.),
CN(C)c1nc(N[C@H]2CC[C@@H](NC(=S)Nc3ccc(Cl)cc3)CC2)nc2c1CCCC2 [compound 1934],,class [2]: 3 (Class 3 The value of percent of control at 10^−7 M was more than 60% or the value of IC50 was more than 200 nM.)
CSc1sc(C(=O)N[C@H]2CC[C@@H](Nc3nc4c(c(N(C)C)n3)CCCC4)CC2)c(I)c1S(=O)(=O)C(C)C [compound 1042],,class (activity class per percent of control at 10^-7 M or IC50): 3 (Class 3 The value of percent of control at 10^−7 M was more than 60% or the value of IC50 was more than 200 nM.)
CN(C)c1ccnc(N[C@H]2CC[C@@H](NC(=O)c3ccc(OC(F)(F)F)c(Cl)c3)CC2)n1 [compound 362],3 (Class 3 The value of percent of control at 10^−7 M was more than 60% or the value of IC50 was more than 200 nM.),
Cc1cc(C(=O)NC[C@H]2CC[C@@H](Nc3nc4c(c(N(C)C)n3)CCCC4)CC2)nn1C(C)(C)C [compound 652],3 (Class 3 The value of percent of control at 10^−7 M was more than 60% or the value of IC50 was more than 200 nM.),
CN(C)c1ccnc(N[C@H]2CC[C@@H](CNCCc3ccc(C(C)(C)C)cc3)CC2)n1 [compound 1529],,class [4]: 3 (Class 3 The value of percent of control at 10^−7 M was more than 60% or the value of IC50 was more than 200 nM.)
"Cc1cc(N(C)C)nc(N[C@H]2CC[C@@H](C(=O)NCc3cccc(C(F)(F)F)c3)CC2)n1 [compound 2813, cis-4-{[4-(dimethylamino)-6-methylpyrimidin-2-yl]amino}-N-[3-(trifluoromethyl)benzyl]cyclohexanecarboxamide]",,class [3]: 2 (Class 2: The value of percent of control at 10^−7 M was from 40% to 60% or the value of IC′50 was from 50 nM to 200 nM.)
CN(C)c1nc(N[C@H]2CC[C@@H](NC(=O)NC3c4ccccc4-c4ccccc43)CC2)nc2c1CCCC2 [compound 1905],,class [2]: 3 (Class 3 The value of percent of control at 10^−7 M was more than 60% or the value of IC50 was more than 200 nM.)
"CN(C)c1nc(N[C@H]2CC[C@@H](NC(=O)c3ccccc3)CC2)nc2c1CCCC2 [compound 529, N-(cis-4-{[4-(dimethylamino)-5,6,7,8-tetrahydroquinazolin-2-yl]amino}cyclohexyl)benzamide]",,class (class 1-3 by percent of control at 10^-7 M or IC50): 2 (Class 2: The value of percent of control at 10^−7 M was from 40% to 60% or the value of IC′50 was from 50 nM to 200 nM.)
"Cc1cc(Br)cc(C)c1NC(=S)N[C@H]1CC[C@@H](Nc2cc(N(C)C)c3ccccc3n2)CC1 [compound 2283, N-(4-bromo-2,6-dimethylphenyl)-N′-(cis-4-{[4-(dimethylamino)quinolin-2-yl]amino}cyclohexyl)thiourea]",1 (Class 1: The value of percent of control at 10^−7 M was less than 40% or the value of IC50 was less than 50 nM.),
"Cc1ccc(CNC(=O)[C@H]2CC[C@@H](Nc3nc(C)cc(N(C)C)n3)CC2)cc1 [Example 2574, cis-4-{[4-(dimethylamino)-6-methylpyrimidin-2-yl]amino}-N-(4-methylbenzyl)cyclohexanecarboxamide]",,class: 1
CC(=O)c1cccc(C(=O)N[C@H]2CC[C@@H](Nc3cc(N(C)C)c4ccccc4n3)CC2)c1 [compound 692],3 (Class 3 The value of percent of control at 10^−7 M was more than 60% or the value of IC50 was more than 200 nM.),
CCc1ccc(CNC[C@H]2CC[C@@H](Nc3cc(N(C)C)c4ccccc4n3)CC2)s1 [compound 1157],3 (Class 3 The value of percent of control at 10^−7 M was more than 60% or the value of IC50 was more than 200 nM.),
COc1ccc2[nH]c(C)c(CC(=O)N[C@H]3CC[C@@H](Nc4nc5c(c(N(C)C)n4)CCCC5)CC3)c2c1 [compound 958],2 (Class 2: The value of percent of control at 10^−7 M was from 40% to 60% or the value of IC′50 was from 50 nM to 200 nM.),
"CN(C)c1cc(N[C@H]2CC[C@@H](CNC(=O)Cc3c(Cl)ccc(Cl)c3Cl)CC2)nc2ccccc12 [compound 789, N-[(cis-4-{[4-(dimethylamino)quinolin-2-yl]amino}cyclohexyl)methyl]-2-(2,3,6-trichlorophenyl)acetamide]",1 (Class 1: The value of percent of control at 10^−7 M was less than 40% or the value of IC50 was less than 50 nM.),

# From patent publication US20050197350A1, “Novel quinoline, tetrahydroquinazoline, and pyrimidine derivatives and methods of treatment related to the use thereof” (TAISHO PHARMACEUTICAL CO., LTD., priority 2003, published 2005)
